The test system of the test is jejunal mucosal 5-HT in mice (C57 BL6). The experiment in a line: Intestinal 5-HT depletion assay (Example B, single 150 mg/kg oral dose). Format: in vivo, mouse. The note with it: one day after oral administration of a single 150 mg/kg dose, P-value class (ANOVA). The protocol: The efficacy of the TPH1 inhibitors of the invention was assessed for the ability to decrease intestinal serotonin concentration in mice. Mice (C57 BL6) were administered a single 150 mg/kg dose of test article by oral gavage. Each animal was euthanized by exsanguination under isoflurane anesthesia. Jejunal intestinal mucosa was isolated and homogenized in 300 μL of a buffer containing 0.3M trichloroacetic acid, 0.1M sodium acetate, 10 mM EDTA, 20 mM sodium bisulfate and 50 mM ascorbic acid. Following centrifugation the 5-HT levels in the supernatants were measured by HPLC. The remaining mucosal pellet was solubilized overnight at 37° C. in a 0.1% sodium dodecyl sulfate buffer in 0.1N NaOH followed by determination of protein concentrations using a BCA protein assay (Pierce, Rockford, Ill. 5-HT levels were normalized to protein and data were expressed as mean percent reduction of mucosal 5-HT levels relative to vehicle control SEM (percent 5-HT reduction). All animal studies were carried out with protocols approved by the Institutional Animal Care and Use Committee.
P-values, indicating statistical significance of the data (ANOVA) are provided in the table: * refers to P<0.05, ** refers to P<0.01, *** refers to P<0.005, and refers to P<0.0005.
As for `CCCCc1ccc(-n2ccc(C)n2)c([C@@H](Oc2cc(N3CCC4(CC3)CN[C@H](C(=O)OCC)C4)nc(N)n2)C(F)(F)F)c1` [Example 63bq, (S)-ethyl 8-(2-amino-6-((R)-1-(5-butyl-2-(3-methyl-1H-pyrazol-1-yl)phenyl)-2,2,2-trifluoroethoxy)pyrimidin-4-yl)-2,8-diazaspiro[4.5]decane-3-carboxylate], the “Efficacy (statistical significance of reduction of mucosal 5-HT concentrations relative to vehicle)” value is reported as “**** (and refers to P<0.0005)”.

On to `CCOC(=O)[C@@H]1CC2(CCN(c3cc(O[C@H](c4ccc(-c5ccc6c(c5)CCNC6=O)cc4)C(F)(F)F)nc(N)n3)CC2)CN1` [Example 63bx, (S)-ethyl 8-(2-amino-6-((R)-2,2,2-trifluoro-1-(4-(1-oxo-1,2,3,4-tetrahydroisoquinolin-6-yl)phenyl)ethoxy)pyrimidin-4-yl)-2,8-diazaspiro[4.5]decane-3-carboxylate], for which the “Efficacy (statistical significance of reduction of mucosal 5-HT concentrations relative to vehicle)” value is given as “*** (*** refers to P<0.005)”.

In the case of `CCOC(=O)[C@@H]1CC2(CCN(c3cc(O[C@H](c4ccc(-c5ccc6cnccc6c5)cc4)C(F)(F)F)nc(N)n3)CC2)CN1` [Example 63by, (S)-ethyl 8-(2-amino-6-((R)-2,2,2-trifluoro-1-(4-(isoquinolin-6-yl)phenyl)ethoxy)pyrimidin-4-yl)-2,8-diazaspiro[4.5]decane-3-carboxylate], the “Efficacy (statistical significance of reduction of mucosal 5-HT concentrations relative to vehicle)” value is “*** (*** refers to P<0.005)”.

Regarding `CCOC(=O)CCc1ccc([C@@H](Oc2cc(N3CCC4(CC3)CN[C@H](C(=O)OCC)C4)nc(N)n2)C(F)(F)F)c(-n2ccc(C)n2)c1` [Example 63bz, (S)-ethyl 8-(2-amino-6-((R)-1-(4-(3-ethoxy-3-oxopropyl)-2-(3-methyl-1H-pyrazol-1-yl)phenyl)-2,2,2-trifluoroethoxy)pyrimidin-4-yl)-2,8-diazaspiro[4.5]decane-3-carboxylate], the “Efficacy (statistical significance of reduction of mucosal 5-HT concentrations relative to vehicle)” value is given as “** (** refers to P<0.01)”.

Regarding `CCOC(=O)[C@@H]1CC2(CCN(c3cc(O[C@H](c4ccc(-c5ccc(CNC(C)=O)cc5)cc4-n4ccc(C)n4)C(F)(F)F)nc(N)n3)CC2)CN1` [Example 63cp, (S)-ethyl 8-(6-((R)-1-(4′-(acetamidomethyl)-3-(3-methyl-1H-pyrazol-1-yl)-[1,1′-biphenyl]-4-yl)-2,2,2-trifluoroethoxy)-2-aminopyrimidin-4-yl)-2,8-diazaspiro[4.5]decane-3-carboxylate], the “Efficacy (statistical significance of reduction of mucosal 5-HT concentrations relative to vehicle)” value is on record as “*** (*** refers to P<0.005)”.

Regarding `CCOC(=O)c1ccccc1-c1ccc(-n2ccc(C)n2)c([C@@H](Oc2cc(N3CCC4(CC3)CN[C@H](C(=O)OCC)C4)nc(N)n2)C(F)(F)F)c1` [Example 63da, (S)-ethyl 8-(2-amino-6-((R)-1-(2′-(ethoxycarbonyl)-4-(3-methyl-1H-pyrazol-1-yl)-[1,1′-biphenyl]-3-yl)-2,2,2-trifluoroethoxy)pyrimidin-4-yl)-2,8-diazaspiro[4.5]decane-3-carboxylate], the “Efficacy (statistical significance of reduction of mucosal 5-HT concentrations relative to vehicle)” value was “*** (*** refers to P<0.005)”.

In the case of `CCOC(=O)CCc1ccc(-c2ccc(-n3ccc(C)n3)c([C@@H](Oc3cc(N4CCC5(CC4)CN[C@H](C(=O)OCC)C5)nc(N)n3)C(F)(F)F)c2)cc1` [Example 63di, (S)-ethyl 8-(2-amino-6-((R)-1-(4′-(3-ethoxy-3-oxopropyl)-4-(3-methyl-1H-pyrazol-1-yl)-[1,1′-biphenyl]-3-yl)-2,2,2-trifluoroethoxy)pyrimidin-4-yl)-2,8-diazaspiro[4.5]decane-3-carboxylate], the “Efficacy (statistical significance of reduction of mucosal 5-HT concentrations relative to vehicle)” value was “*** (*** refers to P<0.005)”.

`CCOC(=O)[C@@H]1CC2(CCN(c3cc(O[C@H](c4ccc(-c5ccc(OC)c(OC)c5)cc4)C(F)(F)F)nc(N)n3)CC2)CN1` [Example 63g, (S)-ethyl 8-(2-amino-6-((R)-1-(3′,4′-dimethoxy-[1,1′-biphenyl]-4-yl)-2,2,2-trifluoroethoxy)pyrimidin-4-yl)-2,8-diazaspiro[4.5]decane-3-carboxylate]: the “Efficacy (statistical significance of reduction of mucosal 5-HT concentrations relative to vehicle)” value is reported as “*** (*** refers to P<0.005)”.

Regarding `CCCCCOC(=O)[C@@H]1CC2(CCN(c3cc(O[C@H](c4ccc(Cl)cc4-n4ccc(C)n4)C(F)(F)F)nc(N)n3)CC2)CN1` [Example 64c, (S)-pentyl 8-(2-amino-6-((R)-1-(4-chloro-2-(3-methyl-1H-pyrazol-1-yl)phenyl)-2,2,2-trifluoroethoxy)pyrimidin-4-yl)-2,8-diazaspiro[4.5]decane-3-carboxylate], the “Efficacy (statistical significance of reduction of mucosal 5-HT concentrations relative to vehicle)” value was “**** (and refers to P<0.0005)”.

With `CCCOC(=O)[C@@H]1CC2(CCN(c3cc(O[C@H](c4ccc(Cl)cc4-n4ccc(C)n4)C(F)(F)F)nc(N)n3)CC2)CN1` [Example 64e, (S)-propyl 8-(2-amino-6-((R)-1-(4-chloro-2-(3-methyl-1H-pyrazol-1-yl)phenyl)-2,2,2-trifluoroethoxy)pyrimidin-4-yl)-2,8-diazaspiro[4.5]decane-3-carboxylate], the “Efficacy (statistical significance of reduction of mucosal 5-HT concentrations relative to vehicle)” value is “**** (and refers to P<0.0005)”.

Turning to `Cc1ccn(-c2cc(Cl)ccc2[C@@H](Oc2cc(N3CCC4(CC3)CN[C@H](C(=O)OCC(C)(C)C)C4)nc(N)n2)C(F)(F)F)n1` [Example 64f, (S)-neopentyl 8-(2-amino-6-((R)-1-(4-chloro-2-(3-methyl-1H-pyrazol-1-yl)phenyl)-2,2,2-trifluoroethoxy)pyrimidin-4-yl)-2,8-diazaspiro[4.5]decane-3-carboxylate], the “Efficacy (statistical significance of reduction of mucosal 5-HT concentrations relative to vehicle)” value is listed as “**** (and refers to P<0.0005)”.

Turning to `CCCCOC(=O)[C@@H]1CC2(CCN(c3cc(O[C@H](c4ccc(Cl)cc4-n4ccc(C)n4)C(F)(F)F)nc(N)n3)CC2)CN1` [Example 64g, (S)-butyl 8-(2-amino-6-((R)-1-(4-chloro-2-(3-methyl-1H-pyrazol-1-yl)phenyl)-2,2,2-trifluoroethoxy)pyrimidin-4-yl)-2,8-diazaspiro[4.5]decane-3-carboxylate], the “Efficacy (statistical significance of reduction of mucosal 5-HT concentrations relative to vehicle)” value was “* (* refers to P<0.05)”.

Turning to `Cc1ccn(-c2cc(Cl)ccc2[C@@H](Oc2cc(N3CCC4(CC3)CN[C@H](C(=O)OC(C)(C)C)C4)nc(N)n2)C(F)(F)F)n1` [Example 65a, (S)-Tert-butyl 8-(2-amino-6-((R)-1-(4-chloro-2-(3-methyl-1H-pyrazol-1-yl)phenyl)-2,2,2-trifluoroethoxy)pyrimidin-4-yl)-2,8-diazaspiro[4.5]decane-3-carboxylate], the “Efficacy (statistical significance of reduction of mucosal 5-HT concentrations relative to vehicle)” value is listed as “**** (and refers to P<0.0005)”.

Regarding `Cc1ccn(-c2cc(Cl)ccc2[C@@H](Oc2cc(N3CCC4(CC3)CN[C@H](C(=O)OCCOC(=O)[C@H](N)C(C)C)C4)nc(N)n2)C(F)(F)F)n1` [Example 66c, (S)-2-(((R)-2-amino-3-methylbutanoyl)oxy)ethyl 8-(2-amino-6-((R)-1-(4-chloro-2-(3-methyl-1H-pyrazol-1-yl)phenyl)-2,2,2-trifluoroethoxy)pyrimidin-4-yl)-2,8-diazaspiro[4.5]decane-3-carboxylate], the “Efficacy (statistical significance of reduction of mucosal 5-HT concentrations relative to vehicle)” value is “**** (and refers to P<0.0005)”.

Values taken from patent publication US11759462B2, “Spirocyclic compounds as tryptophan hydroxylase inhibitors” (priority 2013, dated 2023).
